Measurements reported in US20210244735A1, “COMPOSITIONS AND METHODS FOR TREATING MYELOFIBROSIS” (Impact Biomedicines, Inc., priority 2010, published 2021).
“Also recorded” adds a separate entry of the source. Counter-ions that a name gives are not always drawn. Like-named read-outs stand apart in the source and are kept apart here. Marks after values point to notes of the source that are not given here.

Tested on: subjects with MF
Settings: for discontinuation: adverse event: number of subjects
[1] = at least possibly related, All Subjects (n=59)
[2] = at least possibly related, All Subjects, not transfusion dependent at study entry (n=37)
[3] = at least possibly related, MTD Cohort (n=40)
[4] = at least possibly related, MTD Cohort, not transfusion dependent at study entry (n=24)
[5] = at least possibly related, MTD cohort
[6] = at least possibly related, overall
[7] = number of patients who started at ≥680 mg
[8] = patients who started at ≥680 mg
[9] = started at ≥680 mg, 24 patients not requiring RBC transfusions at baseline
[10] = subject 106-024, 800/680 mg/day, onset day 87, recovered/resolved
[11] = treatment-emergent laboratory finding, MTD subjects (N=40)
[12] = treatment-emergent, MTD subjects (N=40)

## Cc1cnc(Nc2ccc(OCCN3CCCC3)cc2)nc1Nc1cccc(S(=O)(=O)NC(C)(C)C)c1 [TG101348, N-tert-butyl-3-[(5-methyl-2-{[4-(2-pyrrolidin-1-ylethoxy)phenyl]amino}pyrimidin-4-yl)amino]benzenesulfonamide dihydrochloride monohydrate]
59 patients, median follow-up 12 weeks
  patients who discontinued treatment due to toxicity: 7
MF-TG101348-001 and -002
  subjects with serious adverse events considered at least possibly related: 8 subjects
MTD cohort
  Grades 3/4 asymptomatic increase in ALT: 8%
  Grades 3/4 asymptomatic increase in AST: 3%
  Grades 3/4 asymptomatic increase in alkaline phosphatase: 0%
  Grades 3/4 asymptomatic increase in creatinine: 0%
  Grades 3/4 asymptomatic increase in serum lipase: 15%
MTD cohort (n=40)
  subjects who required dose-reduction during the first 6 cycles: 70%
MTD subjects not transfusion dependent at baseline (N=24), transfusion on at least 2 occasions for Hb <10 g/dL
  Anemia: New Transfusion Requirement on Study: 16 (67%) subjects (%)
Phase I, myelofibrosis
  maximum tolerated dose (MTD): 680 mg
All patients, Example 1 data
  Grade 3/4 neutropenia: 14 % of patients
  Grade 3/4 thrombocytopenia: 25 % of patients
All subjects
  Grade 3/4 neutropenia considered related: 10%
  Grade 3/4 thrombocytopenia considered related: 24%
[1]
  Abdominal pain, Severity Grade 1-: 6 (10.2%) subjects (%)
  Abdominal pain, Severity Grade 3-4: 0 subjects (%)
  Alanine aminotransferase increased, Severity Grade 1-: 11 subjects (%)
  Alanine aminotransferase increased, Severity Grade 3-4: 4 (6.8%) subjects (%)
  Anorexia, Severity Grade 1-: 8 (13.6%) subjects (%)
  Anorexia, Severity Grade 3-4: 0 subjects (%)
  Aspartate aminotransferase increased, Severity Grade 1-: 15 subjects (%)
  Aspartate aminotransferase increased, Severity Grade 3-4: 1 (1.7%) subjects (%)
  Blood alkaline phosphatase increased, Severity Grade 1-: 10 subjects (%)
  Blood alkaline phosphatase increased, Severity Grade 3-4: 0 subjects (%)
  Blood creatinine increased, Severity Grade 1-: 14 subjects (%)
  Blood creatinine increased, Severity Grade 3-4: 0 subjects (%)
  Diarrhea, Severity Grade 1-: 32 subjects (%)
  Diarrhea, Severity Grade 3-4: 6 (10.2%) subjects (%)
  Dry skin, Severity Grade 1-: 6 (10.2%) subjects (%)
  Dry skin, Severity Grade 3-4: 0 subjects (%)
  Edema peripheral, Severity Grade 1-: 6 (10.2%) subjects (%)
  Edema peripheral, Severity Grade 3-4: 0 subjects (%)
  Hyperlipasemia, Severity Grade 1-: 10 subjects (%)
  Hyperlipasemia, Severity Grade 3-4: 6 (10.2%) subjects (%)
  Hypocalcemia, Severity Grade 1-: 7 (11.9%) subjects (%)
  Hypocalcemia, Severity Grade 3-4: 1 (1.7%) subjects (%)
  Nausea, Severity Grade 1-: 39 subjects (%)
  Nausea, Severity Grade 3-4: 2 (3.4%) subjects (%)
  Neutropenia, Severity Grade 1-2: 2 (3.4%) subjects (%)
  Neutropenia, Severity Grade 3-4: 6 (10.2%) subjects (%)
  Skin exfoliation, Severity Grade 1-: 8 (13.6%) subjects (%)
  Skin exfoliation, Severity Grade 3-4: 0 subjects (%)
  Thrombocytopenia, Severity Grade 1-2: 10 (17.0%) subjects (%)
  Thrombocytopenia, Severity Grade 3-4: 14 (23.7%) subjects (%)
  Vomiting, Severity Grade 1-: 32 subjects (%)
  Vomiting, Severity Grade 3-4: 2 (3.4%) subjects (%)
[2]
  Anemia, Severity Grade 1-2: 3 (8.1%) subjects (%)
  Anemia, Severity Grade 3-4: 13 (35.1%) subjects (%)
[3]
  Abdominal pain, Severity Grade 1-2: 4 (10.0%) subjects (%)
  Abdominal pain, Severity Grade 3-: 0 subjects (%)
  Alanine aminotransferase increased, Severity Grade 1-2: 9 (22.5%) subjects (%)
  Alanine aminotransferase increased, Severity Grade 3-: 3 (7.5%) subjects (%)
  Anorexia, Severity Grade 1-2: 6 (15.0%) subjects (%)
  Anorexia, Severity Grade 3-: 0 subjects (%)
  Aspartate aminotransferase increased, Severity Grade 1-2: 13 subjects (%)
  Aspartate aminotransferase increased, Severity Grade 3-: 1 (2.5%) subjects (%)
  Blood alkaline phosphatase increased, Severity Grade 1-2: 9 (22.5%) subjects (%)
  Blood alkaline phosphatase increased, Severity Grade 3-: 0 subjects (%)
  Blood creatinine increased, Severity Grade 1-2: 11 subjects (%)
  Blood creatinine increased, Severity Grade 3-: 0 subjects (%)
  Diarrhea, Severity Grade 1-2: 25 subjects (%)
  Diarrhea, Severity Grade 3-: 5 subjects (%)
  Dry skin, Severity Grade 1-2: 6 (15%) subjects (%)
  Dry skin, Severity Grade 3-: 0 subjects (%)
  Edema peripheral, Severity Grade 1-2: 4 (10.0%) subjects (%)
  Edema peripheral, Severity Grade 3-: 0 subjects (%)
  Hyperlipasemia, Severity Grade 1-2: 9 (22.5%) subjects (%)
  Hyperlipasemia, Severity Grade 3-: 6 subjects (%)
  Hypocalcemia, Severity Grade 1-2: 6 (15.0%) subjects (%)
  Hypocalcemia, Severity Grade 3-: 1 (2.5%) subjects (%)
  Nausea, Severity Grade 1-2: 31 subjects (%)
  Nausea, Severity Grade 3-: 2 (5.0%) subjects (%)
  Neutropenia, Severity Grade 1-2: 2 (5.0%) subjects (%)
  Neutropenia, Severity Grade 3-4: 4 (10.0%) subjects (%)
  Skin exfoliation, Severity Grade 1-2: 8 (20.0%) subjects (%)
  Skin exfoliation, Severity Grade 3-: 0 subjects (%)
  Thrombocytopenia, Severity Grade 1-2: 8 (20.0%) subjects (%)
  Thrombocytopenia, Severity Grade 3-4: 11 (27.5%) subjects (%)
  Vomiting, Severity Grade 1-2: 27 subjects (%)
  Vomiting, Severity Grade 3-: 1 (2.5%) subjects (%)
[4]
  Anemia, Severity Grade 1-2: 2 (8.3%) subjects (%)
  Anemia, Severity Grade 3-4: 13 (54.2%) subjects (%)
[5]
  grade 3 diarrhea: 13 % of subjects
  grade 3 nausea: 5 % of subjects
  grade 3 vomiting: 3 % of subjects
[6]
  grade 3 diarrhea: 10 % of subjects
  grade 3 nausea: 3 % of subjects
  grade 3 vomiting: 3 % of subjects
Extension study, 43 subjects, after 24 to 46 weeks on therapy
  subjects discontinued because of adverse events: 3
First 6 cycles of therapy, 59 subjects
  subjects discontinued for treatment-related adverse events: 6
[7]
  diarrhea Gr3: 3
  nausea Gr3: 1
  vomiting Gr3: 1
MTD (initiated at 680 or 800 mg/day), 40 enrolled
  discontinuation: adverse event: 5
Overall, 59 enrolled
  discontinuation: adverse event: 6
Of 37 subjects who were not transfusion dependent at baseline
  Grade 3/4 anemia considered related: 35%
Oral once daily, dose cohorts 30 to 800 mg per day
  maximum tolerated dose (MTD): 680 mg/day
overall
  Grades 3/4 asymptomatic increase in ALT: 7%
  Grades 3/4 asymptomatic increase in AST: 2%
  Grades 3/4 asymptomatic increase in alkaline phosphatase: 0%
  Grades 3/4 asymptomatic increase in creatinine: 0%
  Grades 3/4 asymptomatic increase in serum lipase: 10%
[8]
  Gr1/2 serum creatinine elevation: 38%
  Gr1/2 transaminitis: 38%
  Gr3 neutropenia: 15%
  Gr3 thrombocytopenia: 20%
  Gr4 neutropenia: 0%
  Gr4 thrombocytopenia: 10%
  asymptomatic hyperlipasemia: 33%
Seen at 800 mg/day, dihydrochloride monohydrate
  dose-limiting toxicity (DLT): asymptomatic grade 3 or 4 amylasemia/lipasemia that was reversible; also recorded: asymptomatic grade 3 or 4 hyperamylasemia (with or without hyperlipasemia) that was reversible
[9]
  Grade 3 anemia: 42 % of patients
  Grade 4 anemia: 8 % of patients
Subject 101-047, 680/680 mg/day, onset day 52, recovered/resolved
  serious adverse event Neutropenia, CTCAE Severity Grade: 2
Subject 104-015, 360/520 mg/day, onset day 256, permanently discontinued, not recovered/not resolved
  serious adverse event Depression, CTCAE Severity Grade: 3*
Subject 105-013, 240/0 mg/day, onset day 356, recovered/resolved
  serious adverse event Hyperlipasemia, CTCAE Severity Grade: 4
Subject 105-013, starting dose/dose at event 240/360 mg/day, onset day 215, recovered/resolved
  serious adverse event Thrombocytopenia, CTCAE Severity Grade: 4
Subject 105-056, 680/520 mg/day, onset day 95, recovered/resolved with sequelae
  serious adverse event Gallbladder pain, CTCAE Severity Grade: 3
Subject 105-056, 680/680 mg/day, onset day 22, recovered/resolved
  serious adverse event Cerebrovascular accident, CTCAE Severity Grade: 4
Subject 105-059, 680/520 mg/day, onset day 28, recovered/resolved
  serious adverse event Hyperlipasemia, CTCAE Severity Grade: 3
Subject 105-059, 680/680 mg/day, onset day 8, recovered/resolved
  serious adverse event Hyperlipasemia, CTCAE Severity Grade: 3
Subject 106-024, 800/400 mg/day, onset day 474, recovered/resolved
  serious adverse event Dehydration, CTCAE Severity Grade: 3
Subject 106-024, 800/440 mg/day, onset day 366, recovered/resolved
  serious adverse event Tumor lysis syndrome, CTCAE Severity Grade: 3
[10]
  serious adverse event Dehydration, CTCAE Severity Grade: 2
  serious adverse event Diarrhea, CTCAE Severity Grade: 3
  serious adverse event Nausea, CTCAE Severity Grade: 2
  serious adverse event Vomiting, CTCAE Severity Grade: 2
Subject 106-033, 680/680 mg/day, onset day 8, recovered/resolved
  serious adverse event Pleuritic pain, CTCAE Severity Grade: 2
Subject 106-045, 680/440 mg/day, onset day 170, recovered/resolved
  serious adverse event Dehydration, CTCAE Severity Grade: 3
Subjects that were discontinued
  cytokine rebound upon discontinuation without prior dose reduction or tapering: did not experience “cytokine rebound”
Subjects who initiated treatment at 680 mg/day
  emergence of transfusion requirement: 72%
Subjects who initiated treatment at 240-520 mg/day
  emergence of transfusion requirement: 33%
[11]
  ALT increased Grade 2: 8 (20%) subjects (%)
  ALT increased Grade 3: 2 (5%) subjects (%)
  ALT increased Grade 4: 0 subjects (%)
  AST increased Grade 2: 5 (13%) subjects (%)
  AST increased Grade 3: 1 (3%) subjects (%)
  AST increased Grade 4: 0 subjects (%)
  Creatinine increased Grade 2: 11 (28%) subjects (%)
  Creatinine increased Grade 3: 0 subjects (%)
  Creatinine increased Grade 4: 0 subjects (%)
  Hyperamylasemia Grade 2: 0 subjects (%)
  Hyperamylasemia Grade 3: 1 (3%) subjects (%)
  Hyperamylasemia Grade 4: 1 (3%) subjects (%)
  Hyperkalemia Grade 2: 3 (8%) subjects (%)
  Hyperkalemia Grade 3: 2 (5%) subjects (%)
  Hyperkalemia Grade 4: 1 (3%) subjects (%)
  Hyperlipasemia Grade 2: 4 (10%) subjects (%)
  Hyperlipasemia Grade 3: 3 (8%) subjects (%)
  Hyperlipasemia Grade 4: 2 (5%) subjects (%)
  Hypocalcemia Grade 2: 8 (20%) subjects (%)
  Hypocalcemia Grade 3: 3 (8%) subjects (%)
  Hypocalcemia Grade 4: 0 subjects (%)
[12]
  Abdominal pain Grade 1: 5 (13%) subjects (%)
  Abdominal pain Grade 2: 0 subjects (%)
  Abdominal pain Grade 3: 0 subjects (%)
  Abdominal pain Grade 4: 0 subjects (%)
  Anorexia Grade 1: 7 (18%) subjects (%)
  Anorexia Grade 2: 0 subjects (%)
  Anorexia Grade 3: 1 (3%) subjects (%)
  Anorexia Grade 4: 0 subjects (%)
  Constipation Grade 1: 6 (15%) subjects (%)
  Constipation Grade 2: 1 (3%) subjects (%)
  Constipation Grade 3: 0 subjects (%)
  Constipation Grade 4: 0 subjects (%)
  Contusion Grade 1: 5 (13%) subjects (%)
  Contusion Grade 2: 0 subjects (%)
  Contusion Grade 3: 0 subjects (%)
  Contusion Grade 4: 0 subjects (%)
  Diarrhea Grade 1: 21 (53%) subjects (%)
  Diarrhea Grade 2: 4 (10%) subjects (%)
  Diarrhea Grade 3: 5 (13%) subjects (%)
  Diarrhea Grade 4: 0 subjects (%)
  Edema peripheral Grade 1: 7 (18%) subjects (%)
  Edema peripheral Grade 2: 1 (3%) subjects (%)
  Edema peripheral Grade 3: 0 subjects (%)
  Edema peripheral Grade 4: 0 subjects (%)
  Fatigue Grade 1: 2 (5%) subjects (%)
  Fatigue Grade 2: 3 (8%) subjects (%)
  Fatigue Grade 3: 1 (3%) subjects (%)
  Fatigue Grade 4: 0 subjects (%)
  Headache Grade 1: 4 (10%) subjects (%)
  Headache Grade 2: 1 (3%) subjects (%)
  Headache Grade 3: 0 subjects (%)
  Headache Grade 4: 0 subjects (%)
  Nausea Grade 1: 20 (50%) subjects (%)
  Nausea Grade 2: 6 (15%) subjects (%)
  Nausea Grade 3: 2 (5%) subjects (%)
  Nausea Grade 4: 0 subjects (%)
  Neutropenia Grade 3: 6 (15%) subjects (%)
  Neutropenia Grade 4: 0 subjects (%)
  Proteinuria Grade 1: 2 (5%) subjects (%)
  Proteinuria Grade 2: 3 (8%) subjects (%)
  Proteinuria Grade 3: 0 subjects (%)
  Proteinuria Grade 4: 0 subjects (%)
  Thrombocytopenia Grade 3: 8 (20%) subjects (%)
  Thrombocytopenia Grade 4: 5 (13%) subjects (%)
  Vomiting Grade 1: 20 (50%) subjects (%)
  Vomiting Grade 2: 7 (18%) subjects (%)
  Vomiting Grade 3: 1 (3%) subjects (%)
  Vomiting Grade 4: 0 subjects (%)
